The record followed here is patent publication US10174013B2, “Benzimidazole derivatives as kinase inhibitors” (SELVITA S.A., priority 2012, dated 2019).

In one data set the target is FLT3wt (Homo sapiens (Human), UniProt P36888). The data set is described as follows: ADP-Glo Kinase Assay, Flt3 wt. In kind it is biochemical. Conditions: 1 μM compound; for inhibition at 1 µM: read-out: Flt3wt % INH (1 μM). In a few lines:
(§1)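 ADP-Glo luminescent ADP detection of human kinase activity in 5 mM MOPS pH 7.5, 5 mM MgCl2, 0.4 mM EDTA, 1.5 mM DTT. ATP at each kinase's apparent Km; compounds diluted to 1000 nM in assay buffer. Percent inhibition from normalised luminescence.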
Background: ADP-Glo turns the ADP formed in a reaction into a luminescent signal.

The next data set has as its system HepG2 cells. The data set can be described thus: Growth inhibition, MTS assay, HepG2. Format: cell-based, Human. Conditions: MTS cell viability, read-out: HepG2 ED50. (Tetrazolium dyes change colour on reduction, which living cells bring about.)
For another data set, the target named is DYRK1 (Homo sapiens (Human), UniProt Q13627). The data set is described as follows: ADP-Glo Kinase Assay, DYRK1. Format: biochemical. Conditions: 1 μM compound; for inhibition at 1 µM: read-out: DYRK1A % INH (1 μM). In a few lines: as §1
For a further data set, the target named is Pim-3 (Homo sapiens (Human), UniProt Q86V86). The data set can be described thus: ADP-Glo Kinase Assay, Pim-3. In kind it is biochemical. Conditions: 1 μM compound; for inhibition at 1 µM: read-out: Pim-3 % INH (1 μM). The essentials:
as §1

In the next data set the target is CDK2/E (Homo sapiens (Human), UniProt P24941). The data set can be described thus: ADP-Glo Kinase Assay, CDK2/E. In kind it is biochemical. As to conditions: 1 μM compound; for inhibition at 1 µM: read-out: CDK2/E % INH (1 μM). The essentials: as §1
Another data set relates to HEL92 cells. The data set is described as follows: Growth inhibition, MTS assay, HEL92. Format: cell-based, Human. As to conditions: MTS cell viability, read-out: HEL92 ED50.
Another data set concerns the target Pim-1 (Homo sapiens (Human), UniProt P11309). The data set can be described thus: ADP-Glo Kinase Assay, Pim-1. In kind it is biochemical. As to conditions: 1 μM compound; for inhibition at 1 µM: read-out: Pim-1 % INH (1 μM). In a few lines:
as §1

The target in another data set is Pim-2 (Homo sapiens (Human), UniProt Q9P1W9). The data set is described as follows: ADP-Glo Kinase Assay, Pim-2. Conditions: 1 μM compound. Format: biochemical. In a few lines: as §1
Sequence of Pim-2 (Q9P1W9 whole entry): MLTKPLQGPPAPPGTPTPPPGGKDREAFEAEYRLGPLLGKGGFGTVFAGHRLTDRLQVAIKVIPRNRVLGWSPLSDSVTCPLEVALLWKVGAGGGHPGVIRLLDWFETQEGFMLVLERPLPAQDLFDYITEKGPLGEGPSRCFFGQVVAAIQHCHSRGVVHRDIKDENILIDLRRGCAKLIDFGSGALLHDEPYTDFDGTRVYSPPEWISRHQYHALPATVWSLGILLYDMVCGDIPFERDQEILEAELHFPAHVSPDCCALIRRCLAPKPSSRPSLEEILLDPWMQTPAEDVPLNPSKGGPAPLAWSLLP
A further data set addresses hERG potassium channel (Homo sapiens (Human), UniProt Q12809). The data set is described as follows: hERG automated patch clamp assay (QPatch HT). As to the method: The hERG (human ether-A-go-go-related gene) channel corresponds to an important anti-target for potential new drugs since its inhibition may lead to sudden death. In order to establish whether the compounds of the present invention act on hERG, the following experiment was carried out.
The in vitro effects of the compounds indicated in Table 5 on the hERG potassium channel current (a surrogate for Iκr, the rapidly activating, delayed rectifier cardiac potassium current) expressed in mammalian cells were evaluated at room temperature using the QPatch HT® (Sophion Bioscience A/S, Denmark), an automatic parallel patch clamp system. Each compound indicated in Table 5 was evaluated at 0.1, 1, 3, 10 and 30 μM with each concentration tested in a minimum of two cells (n≥2). The duration of exposure to each compound concentration was 3 minutes.

A further data set deals with MV4-11 cells. The data set is described as follows: Growth inhibition, MTS assay, MV4-11. In kind it is cell-based, Human. Conditions: MTS cell viability, read-out: MV4-11 ED50.
In a further data set the test system is SW-480 cells. The data set can be described thus: Growth inhibition, MTS assay, SW-480. Format: cell-based, Human. As to conditions: 72 hours, MTS cell viability, read-out: SW-480 ED50. From the text: The following cell lines, were obtained and used in tests as outlined below: • Human myelomonocytic, biphenotypic leukemia MV4-11 cells (harboring a Flt3-ITD mutation); • Human Acute Myeloid Leukemia MOLM16 cells; • Human Acute Myeloid Leukemia MOLM13 cells (harboring a Flt3-ITD mutation); • Human Myeloid Leukemia KG-1 cells; • Human erythroleukemia HEL92 cells; • Human mantle cell lymphoma Jeko-1 cells; • Human hepatocellular carcinoma HepG2 cells; and • Human colon adenocarcinoma SW-480 cells.
The assays were carried out according to the following protocol, which is described as an example for the MV4-11 cells:
Ten thousand MV4-11 cells were inoculated into each well of a 96-well microplate (manufactured by Corning Corp.) using Iscove's MDM medium (culture medium) containing 10% fetal calf serum (FCS). The same day, a dimethyl sulfoxide (DMSO) solution of each test compound prepared in a concentration of 10 mmol/L was further diluted with DMSO to the desired concentrations (0.1, 0.5, 1, 2.5, 5 and 10 micromol/L), and the diluted solution was added to each well. The individual wells were further cultured in 5% carbon dioxide at 37° C. for 72 hours. […] Briefly, 10 μl MTS (3-(4,5-Dimethyl-2-thiazolyl)-5-(carboxymethoxyphenyl)-2-(4-sulfophenyl)-2H-tetrazolium was added to each well, and culturing was performed in 5% carbon dioxide at 37° C. for 2 hours. After this incubation and using a microplate spectrophotometer (Synergy 2 multi-mode microplate reader (BioTek)), the absorbance of each well was measured at 490 nm. The value for cells not incubated with a test compound was designated as 100%. By comparing these values with the absorbance difference obtained at the well in which each test compound was added, the cell viability (% viability) after treatment with the test compound was calculated.

Read-outs that look alike come from different tables or passages of the source. A value given as a limit tells only on which side of the number the result lay.

Sequence of hERG potassium channel (Q12809 whole entry): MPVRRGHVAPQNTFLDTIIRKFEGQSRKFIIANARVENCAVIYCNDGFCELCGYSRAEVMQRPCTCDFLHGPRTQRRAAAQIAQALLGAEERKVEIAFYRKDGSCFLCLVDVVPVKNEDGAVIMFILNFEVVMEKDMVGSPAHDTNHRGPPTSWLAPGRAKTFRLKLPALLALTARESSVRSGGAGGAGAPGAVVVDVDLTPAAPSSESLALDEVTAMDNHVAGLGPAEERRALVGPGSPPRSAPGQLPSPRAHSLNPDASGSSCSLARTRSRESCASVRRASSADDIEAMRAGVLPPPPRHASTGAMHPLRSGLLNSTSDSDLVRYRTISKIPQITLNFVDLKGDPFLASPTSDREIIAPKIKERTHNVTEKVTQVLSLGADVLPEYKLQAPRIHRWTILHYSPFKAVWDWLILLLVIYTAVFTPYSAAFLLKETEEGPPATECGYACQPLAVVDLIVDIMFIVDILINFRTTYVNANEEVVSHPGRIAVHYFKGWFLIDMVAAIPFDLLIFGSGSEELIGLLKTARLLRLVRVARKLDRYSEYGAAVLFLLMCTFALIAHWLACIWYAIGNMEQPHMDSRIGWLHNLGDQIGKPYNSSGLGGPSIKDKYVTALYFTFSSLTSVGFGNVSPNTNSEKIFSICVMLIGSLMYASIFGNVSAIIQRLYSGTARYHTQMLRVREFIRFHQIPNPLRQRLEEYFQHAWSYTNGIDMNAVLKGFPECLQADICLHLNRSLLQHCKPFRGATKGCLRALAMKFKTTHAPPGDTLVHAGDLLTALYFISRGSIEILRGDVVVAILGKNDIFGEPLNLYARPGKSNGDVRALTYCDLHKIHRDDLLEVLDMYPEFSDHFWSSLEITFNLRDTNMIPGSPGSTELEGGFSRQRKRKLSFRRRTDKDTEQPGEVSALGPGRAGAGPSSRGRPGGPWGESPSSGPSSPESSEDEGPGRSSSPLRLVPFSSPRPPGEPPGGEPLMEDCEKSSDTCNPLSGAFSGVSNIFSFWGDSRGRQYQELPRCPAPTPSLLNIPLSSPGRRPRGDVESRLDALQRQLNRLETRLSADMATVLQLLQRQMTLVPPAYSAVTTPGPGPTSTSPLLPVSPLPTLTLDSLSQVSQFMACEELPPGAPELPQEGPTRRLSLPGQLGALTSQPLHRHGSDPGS
Sequence of FLT3wt (P36888 27-993): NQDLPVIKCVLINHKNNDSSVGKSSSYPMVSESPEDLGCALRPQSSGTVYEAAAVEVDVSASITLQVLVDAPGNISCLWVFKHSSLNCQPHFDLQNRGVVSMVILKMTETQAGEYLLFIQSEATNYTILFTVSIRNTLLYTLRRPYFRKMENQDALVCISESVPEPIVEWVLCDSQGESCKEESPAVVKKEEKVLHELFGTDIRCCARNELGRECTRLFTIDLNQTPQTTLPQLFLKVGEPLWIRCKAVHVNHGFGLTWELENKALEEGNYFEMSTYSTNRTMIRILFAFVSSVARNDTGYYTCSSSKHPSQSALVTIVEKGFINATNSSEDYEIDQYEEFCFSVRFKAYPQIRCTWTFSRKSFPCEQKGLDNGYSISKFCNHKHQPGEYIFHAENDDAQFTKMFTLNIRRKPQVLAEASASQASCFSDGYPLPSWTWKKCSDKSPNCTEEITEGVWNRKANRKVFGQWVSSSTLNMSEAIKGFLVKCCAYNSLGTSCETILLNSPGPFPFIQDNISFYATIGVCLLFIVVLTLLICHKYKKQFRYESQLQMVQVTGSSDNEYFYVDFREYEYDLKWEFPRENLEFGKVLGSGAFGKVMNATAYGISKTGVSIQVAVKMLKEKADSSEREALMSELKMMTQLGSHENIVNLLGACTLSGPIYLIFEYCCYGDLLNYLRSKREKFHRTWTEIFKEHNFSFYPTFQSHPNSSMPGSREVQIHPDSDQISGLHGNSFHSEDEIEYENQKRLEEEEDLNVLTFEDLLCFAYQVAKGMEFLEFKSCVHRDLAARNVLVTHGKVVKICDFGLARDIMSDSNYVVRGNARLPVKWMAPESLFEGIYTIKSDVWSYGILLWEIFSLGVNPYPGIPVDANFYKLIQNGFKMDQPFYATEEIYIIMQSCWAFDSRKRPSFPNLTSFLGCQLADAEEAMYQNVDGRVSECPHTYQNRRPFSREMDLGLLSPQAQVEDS
Sequence of Pim-1 (P11309 whole entry): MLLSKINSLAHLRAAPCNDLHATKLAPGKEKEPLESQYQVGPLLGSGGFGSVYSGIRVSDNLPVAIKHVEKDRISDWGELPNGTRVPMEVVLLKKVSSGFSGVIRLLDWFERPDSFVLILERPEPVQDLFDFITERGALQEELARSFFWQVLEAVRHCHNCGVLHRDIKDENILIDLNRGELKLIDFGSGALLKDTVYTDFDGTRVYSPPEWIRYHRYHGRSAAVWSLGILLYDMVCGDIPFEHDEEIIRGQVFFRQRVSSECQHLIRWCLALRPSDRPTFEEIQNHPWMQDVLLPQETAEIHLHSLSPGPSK

For the molecule `CC(C)n1c(N2CCOC(CN)C2)nc2c([N+](=O)[O-])c(Br)c(Br)cc21` (centres unmarked) [Example 1AQ], the inhibition at 1 µM at FLT3wt was less than 5%; on DYRK1 it was 22%; on Pim-3, 83%; on CDK2/E, less than 5%; at Pim-1 it was more than 95%; at Pim-2 (read-out: Pim-2 % INH (1 μM)), 40%. Besides, the IC50 with HepG2 cells (Homo sapiens, HepG2, 72 h) turned out to be 4.9 µM; with HEL92 cells (Homo sapiens, 72 h), 9.6 µM; on hERG potassium channel (human, 3 min), 1.86 µM; in the data set with MV4-11 cells (Homo sapiens, MV4-11, 72 h), 2.5 µM.

As to `CCCn1c(NCCCN)nc2c([N+](=O)[O-])c(Br)c(Br)cc21` [Example 1P], the “Flt3wt % INH (1 μM)” value at FLT3wt is given as 37%. Moreover, the IC50 in the data set with SW-480 cells was 2.9 µM; with HepG2 cells (72 hours) it was 1.5 µM; with HEL92 cells (72 hours) it was 7.0 µM; at hERG potassium channel, 1.88 µM; in the data set on MV4-11 cells (72 hours), 1.4 µM. The “DYRK1A % INH (1 μM)” value at DYRK1 was found to be 23%. Also, the “Pim-3 % INH (1 μM)” value on Pim-3 was 77%. Moreover, the “CDK2/E % INH (1 μM)” value on CDK2/E is less than 5%. The “Pim-1 % INH (1 μM)” value at Pim-1 is recorded as more than 95%. Besides, the “Pim-2 % INH (1 μM)” value at Pim-2 is given as 36%.

Take `CCn1c(N2CCNC(=O)C2)nc2c([N+](=O)[O-])c(Br)c(Br)cc21` [Example 22A, 4-(5,6-dibromo-1-ethyl-4-nitro-1H-1,3-benzodiazol-2-yl)piperazin-2-one]: the inhibition at 1 µM on FLT3wt is 8%; at Pim-3, 28%; on CDK2/E it was less than 5%; on Pim-1, 65%. Besides, the IC50 at hERG potassium channel (read-out: hERG IC50, automated patch clamp, room temperature, 0.1-30 μM, 3 minutes exposure) turned out to be 10.1 µM.

In the case of `CCn1c(NC2CCCCC2N)nc2c([N+](=O)[O-])c(Br)c(Br)cc21` (centres unmarked) [Example 22L, 1-N-(5,6-dibromo-1-ethyl-4-nitro-1H-1,3-benzodiazol-2-yl)cyclohexane-1,2-diamine], the inhibition at 1 µM on FLT3wt is less than 5%; at DYRK1, 17%; at Pim-3, more than 95%; on CDK2/E it was less than 5%; on Pim-1 it was 80%. In addition, the IC50 with SW-480 cells (Homo sapiens, SW480) amounted to 1.2 µM; in the data set with HepG2 cells (Homo sapiens, HepG2, 72 h), 1.3 µM; in the data set with HEL92 cells (Homo sapiens, 72 h), 3.2 µM; against hERG potassium channel, 0.85 µM; in the data set on MV4-11 cells (Homo sapiens, MV4-11, 72 h), 1.9 µM.

As to `CCn1c(N2CCN(CCCN3CCNCC3)CC2)nc2c([N+](=O)[O-])c(Br)c(Br)cc21` [Example 22R, 5,6-dibromo-1-ethyl-4-nitro-2-{4{3-(piperazin-1-yl)propyl]piperazin-1-yl}-1H-1,3-benzodiazole], the IC50 in the data set with SW-480 cells (Homo sapiens, SW480) is 0.5 µM; in the data set with HepG2 cells (Homo sapiens, HepG2, 72 h), 1.2 µM; in the data set on HEL92 cells (Homo sapiens, 72 h), 2.9 µM; at hERG potassium channel, 1.78 µM; with MV4-11 cells (Homo sapiens, MV4-11, 72 h) it was 1.1 µM.
